Experiment [1] deals with T1, RVFV CBD (CBD13, RVFV L protein cap-binding domain) (Rift Valley fever virus, UniProt A2SZS3). The settings on record: 1-10 mM ligand, 15 μM protein, 20 mM Na-phosphate pH 6.5, 100 mM NaCl.
For experiment [2], the target named is T1, RVFV CBD (CBD13, RVFV L protein cap-binding domain). As to conditions: 25°C, 50 mM Na-phosphate pH 6.5, 150 mM NaCl, 10% glycerol; 9.8 mM GTP in syringe, 194 μM protein.
Experiment [3] shares this target. The experiment in a line: biochemical.

T1 sequence (A2SZS3 1706-1822 limits assumed): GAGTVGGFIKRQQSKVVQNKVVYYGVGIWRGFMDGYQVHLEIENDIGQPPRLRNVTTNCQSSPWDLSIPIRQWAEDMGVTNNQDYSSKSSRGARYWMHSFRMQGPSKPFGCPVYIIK

With `Nc1ncnc2c1ncn2[C@@H]1O[C@H](COP(=O)(O)OP(=O)(O)OP(=O)(O)O)[C@@H](O)[C@H]1O` [ATP], the ΔTm entry in experiment [1] is “no or even negative effects on protein stability after addition of GTP or ATP”.

For the molecule `Nc1nc2c(ncn2[C@@H]2O[C@H](COP(=O)(O)OP(=O)(O)OP(=O)(O)O)[C@@H](O)[C@H]2O)c(=O)[nH]1` [GTP], the KD result in experiment [2] is listed as “For GTP the KD is too high to be determined by ITC”.

Regarding `C[n+]1cn([C@@H]2O[C@H](COP(=O)(O)OP(=O)(O)OP(=O)(O)O)[C@@H](O)[C@H]2O)c2nc(N)[nH]c(=O)c21` [m^7GTP], the Kd (usually the free concentration of one partner at which half of the binding sites on the other are occupied at equilibrium, for simple one-to-one binding) in experiment [3] is around 737 µM.

The values are drawn from publication PMC6555543 (PLoS Pathogens, 2019).
